# Data reported in ChEMBL document CHEMBL1201862, “PubChem BioAssay data set” (2004).
# The source made the active and inactive calls. Cut-off read from the data, not from the text of the source, for most assays here: actives have a measured IC50 and inactives only a lower limit.
# Experiments:
# [1] = biological target: Eukaryotic translation initiation factor 4H (Homo sapiens, UniProt Q15056); test: eIF4H binding inhibition – biochemical, uHTS, fluorescence polarization, translation initiation inhibitor project, primary screen (AID 2012)
# [2] = biological target: Polyadenylate-binding protein 1 (Homo sapiens, UniProt P11940); test: blockers of PABP interaction with poly(A) – biochemical, fluorescence polarization, […] (AID 2014)
# [3] = biological target: T1, Tyrosine-protein phosphatase non-receptor type 7 (Homo sapiens, UniProt P35236); type: functional
# T1 sequence (P35236 whole entry): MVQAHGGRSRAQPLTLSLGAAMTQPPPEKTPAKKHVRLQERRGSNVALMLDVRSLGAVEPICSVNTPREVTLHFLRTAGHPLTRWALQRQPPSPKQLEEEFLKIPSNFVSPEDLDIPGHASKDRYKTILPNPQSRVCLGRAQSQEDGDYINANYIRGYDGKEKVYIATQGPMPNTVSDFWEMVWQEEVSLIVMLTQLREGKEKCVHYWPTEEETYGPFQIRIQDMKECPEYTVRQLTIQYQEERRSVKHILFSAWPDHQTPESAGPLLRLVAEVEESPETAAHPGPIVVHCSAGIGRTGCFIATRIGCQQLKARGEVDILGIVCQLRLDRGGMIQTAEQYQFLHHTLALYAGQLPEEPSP
# [4] = biological target: Glyceraldehyde-3-phosphate dehydrogenase (Homo sapiens, UniProt P04406)
# [5] = biological target: T2, Dual specificity protein phosphatase 6 (Rattus norvegicus, UniProt Q64346)
# T2 sequence (Q64346 whole entry): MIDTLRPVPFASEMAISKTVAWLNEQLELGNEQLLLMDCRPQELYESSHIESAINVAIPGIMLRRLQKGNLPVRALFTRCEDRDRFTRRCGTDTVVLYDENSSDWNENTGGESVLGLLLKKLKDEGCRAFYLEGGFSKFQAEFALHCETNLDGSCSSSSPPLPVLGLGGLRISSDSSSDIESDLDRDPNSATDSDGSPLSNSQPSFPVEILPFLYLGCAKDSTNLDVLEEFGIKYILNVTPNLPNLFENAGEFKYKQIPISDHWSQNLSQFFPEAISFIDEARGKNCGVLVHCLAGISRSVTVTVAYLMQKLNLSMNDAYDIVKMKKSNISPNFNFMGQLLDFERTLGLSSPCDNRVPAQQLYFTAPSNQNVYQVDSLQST
# [6] = biological target: T2, Dual specificity protein phosphatase 6; type: functional
# [7] = biological target: DNA dC->dU-editing enzyme APOBEC-3A (Homo sapiens, UniProt P31941); test: A3A deaminase inhibition for selectivity – biochemical, dose response (AID 504722); type: functional
# [8] = biological target: DNA dC->dU-editing enzyme APOBEC-3G (Homo sapiens, UniProt Q9HC16); test: Dose Response confirmation of small molecule APOBEC3G DNA Deaminase Inhibitors via a fluorescence-based single-stranded DNA deaminase assay. [Related pubchem assays (depositor defined):AID493012, AID493028]; type: functional
# Hexokinase = biological target: T3, Hexokinase (Trypanosoma brucei, UniProt Q38C41); test: Confirmation assay for inhibitors of Trypanosoma brucei hexokinase 1-Analogue-first series. [Related pubchem assays (depositor defined):AID1430, AID1632, AID2516, AID2560, AID2579, AID2600, AID449725, AID492951]; type: functional
# T3 sequence (Q38C41 whole entry): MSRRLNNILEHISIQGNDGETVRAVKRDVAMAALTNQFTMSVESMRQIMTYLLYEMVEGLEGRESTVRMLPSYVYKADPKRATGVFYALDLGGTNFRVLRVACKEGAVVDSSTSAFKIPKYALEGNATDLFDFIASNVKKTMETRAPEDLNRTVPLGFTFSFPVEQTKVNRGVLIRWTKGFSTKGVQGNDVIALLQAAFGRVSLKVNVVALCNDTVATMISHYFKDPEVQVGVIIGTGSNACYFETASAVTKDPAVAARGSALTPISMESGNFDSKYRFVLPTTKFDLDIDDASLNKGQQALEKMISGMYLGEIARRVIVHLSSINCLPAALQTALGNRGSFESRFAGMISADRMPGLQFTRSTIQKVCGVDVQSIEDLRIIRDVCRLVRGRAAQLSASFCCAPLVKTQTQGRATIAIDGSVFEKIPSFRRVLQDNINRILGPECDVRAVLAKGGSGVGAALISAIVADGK
# [9] = biological target: Melanin-concentrating hormone receptor 1 (Homo sapiens, UniProt Q99705); test: Late-stage fluorescence-based counterscreen for antagonists of the G-protein coupled receptor 7 (GPR7): cell-based dose response assay to identify antagonists of the melanin-concentrating hormone receptor 1 (MCHR1). [Related pubchem assays (depositor defined):AID1861, AID1880, AID1952, AID2148, AID2251, AID2257, AID485339]; type: functional;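 note: stimulated with 30 nM MCH peptide agonist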
# Leucine aminopeptidase = biological target: T4, Leucine aminopeptidase (Plasmodium falciparum 3D7, UniProt Q8IL11); test: P. falciparum M17LAP inhibitors, primary screen, biochemical, fluorogenic H-Leu-NHMec substrate, 1536-well (AID 1619); type: functional
# T4 sequence (Q8IL11 whole entry): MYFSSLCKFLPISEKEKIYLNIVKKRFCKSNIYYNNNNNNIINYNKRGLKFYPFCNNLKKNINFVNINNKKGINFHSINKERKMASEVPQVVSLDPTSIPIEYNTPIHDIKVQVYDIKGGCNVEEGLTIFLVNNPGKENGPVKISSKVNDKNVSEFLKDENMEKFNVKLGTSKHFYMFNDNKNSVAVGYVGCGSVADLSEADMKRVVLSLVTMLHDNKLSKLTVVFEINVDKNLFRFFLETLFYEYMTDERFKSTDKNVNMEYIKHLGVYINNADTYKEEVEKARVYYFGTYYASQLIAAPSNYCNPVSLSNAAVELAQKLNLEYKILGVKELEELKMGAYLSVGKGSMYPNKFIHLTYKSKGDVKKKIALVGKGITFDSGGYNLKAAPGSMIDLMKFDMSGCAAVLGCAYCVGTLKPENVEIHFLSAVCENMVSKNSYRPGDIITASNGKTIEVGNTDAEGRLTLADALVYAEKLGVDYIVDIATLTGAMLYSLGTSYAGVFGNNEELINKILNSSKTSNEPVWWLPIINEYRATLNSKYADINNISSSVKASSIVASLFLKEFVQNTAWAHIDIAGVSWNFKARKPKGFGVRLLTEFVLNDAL
# [10] = biological target: T5, RNA-binding protein pos-1 (Caenorhabditis elegans, UniProt G5EF15); test: disruptors of C. elegans POS-1 RNA interaction – biochemical, fluorescence polarization, dose response (AID 1964);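 note: purified POS-1 fused to maltose binding protein made in E. coli; potency of compounds blocking POS-1 binding to fluorescent RNA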
# T5 sequence (G5EF15 whole entry): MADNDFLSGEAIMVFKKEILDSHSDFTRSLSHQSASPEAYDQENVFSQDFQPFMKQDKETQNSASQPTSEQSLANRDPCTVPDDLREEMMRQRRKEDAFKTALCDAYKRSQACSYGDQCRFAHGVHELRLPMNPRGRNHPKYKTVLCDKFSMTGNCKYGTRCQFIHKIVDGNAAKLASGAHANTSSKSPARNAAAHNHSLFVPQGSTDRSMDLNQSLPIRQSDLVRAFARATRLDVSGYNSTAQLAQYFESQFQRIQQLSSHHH
# SUMO-activating enzyme [11] = biological target: T6, SUMO-activating enzyme (Homo sapiens, UniProt Q9UBT2); test: blockers of UBC9-mediated SUMO conjugation – biochemical, AlphaScreen, SUMOylation inhibitor project, confirmation (AID 2018); type: functional
# [12] = biological target: T7, Zinc finger protein mex-5 (Caenorhabditis elegans, UniProt Q9XUB2); test: potency of MEX-5 RNA-binding blockers – biochemical, C. elegans, fluorescence polarization, dose response (AID 1960)
# T7 sequence (Q9XUB2 whole entry): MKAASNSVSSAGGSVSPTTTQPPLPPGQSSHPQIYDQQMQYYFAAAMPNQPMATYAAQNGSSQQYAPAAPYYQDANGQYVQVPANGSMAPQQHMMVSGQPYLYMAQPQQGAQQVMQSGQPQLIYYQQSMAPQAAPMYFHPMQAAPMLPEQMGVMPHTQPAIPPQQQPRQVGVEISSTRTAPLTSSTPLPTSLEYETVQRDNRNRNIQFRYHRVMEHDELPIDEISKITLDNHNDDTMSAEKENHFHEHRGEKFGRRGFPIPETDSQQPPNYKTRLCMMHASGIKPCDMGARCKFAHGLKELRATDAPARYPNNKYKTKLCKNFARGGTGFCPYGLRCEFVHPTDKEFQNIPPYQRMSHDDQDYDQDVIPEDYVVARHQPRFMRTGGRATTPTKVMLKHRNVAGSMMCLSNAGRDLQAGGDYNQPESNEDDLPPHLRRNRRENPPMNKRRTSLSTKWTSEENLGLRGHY
# SUMO-activating enzyme [13] = biological target: T6, SUMO-activating enzyme; test: blockers of SAE1/SAE2–UBC9 SUMO transfer – biochemical, HTRF, uHTS, primary screen (AID 2006); type: protein-complex assay
# [14] = biological target: Eukaryotic translation initiation factor 4E (Mus musculus, UniProt P63073); test: blockers of eIF4G binding by eIF4E – biochemical, TR-FRET, dose response (AID 855); type: functional;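 note: potency for disrupting eIF4E binding to eIF4GI seen as loss of FRET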
# Caspase-6 = biological target: T8, Caspase-6 (Homo sapiens, UniProt P55212); test: inhibition of CASP6 peptide cleavage – biochemical, VEID-R110 fluorescence, cherry-pick, dose response (AID 720632)
# T8 sequence (P55212 whole entry): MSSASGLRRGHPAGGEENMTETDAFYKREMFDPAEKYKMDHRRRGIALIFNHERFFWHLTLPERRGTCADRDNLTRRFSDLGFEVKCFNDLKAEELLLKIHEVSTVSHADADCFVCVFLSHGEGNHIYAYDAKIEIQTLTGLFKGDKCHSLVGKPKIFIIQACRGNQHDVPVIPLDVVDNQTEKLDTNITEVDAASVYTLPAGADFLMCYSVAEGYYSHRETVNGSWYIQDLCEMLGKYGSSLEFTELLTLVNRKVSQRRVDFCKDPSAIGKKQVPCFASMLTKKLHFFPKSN
# [15] = biological target: T9, Rac GTPase-activating protein 1 (Homo sapiens, UniProt Q9H0H5); test: blockers of MgcRacGAP-driven Rac1 GTP hydrolysis – biochemical, ADP Hunter fluorescence, primary and confirmatory, confirmation (AID 624330); type: functional
# T9 sequence (Q9H0H5 whole entry): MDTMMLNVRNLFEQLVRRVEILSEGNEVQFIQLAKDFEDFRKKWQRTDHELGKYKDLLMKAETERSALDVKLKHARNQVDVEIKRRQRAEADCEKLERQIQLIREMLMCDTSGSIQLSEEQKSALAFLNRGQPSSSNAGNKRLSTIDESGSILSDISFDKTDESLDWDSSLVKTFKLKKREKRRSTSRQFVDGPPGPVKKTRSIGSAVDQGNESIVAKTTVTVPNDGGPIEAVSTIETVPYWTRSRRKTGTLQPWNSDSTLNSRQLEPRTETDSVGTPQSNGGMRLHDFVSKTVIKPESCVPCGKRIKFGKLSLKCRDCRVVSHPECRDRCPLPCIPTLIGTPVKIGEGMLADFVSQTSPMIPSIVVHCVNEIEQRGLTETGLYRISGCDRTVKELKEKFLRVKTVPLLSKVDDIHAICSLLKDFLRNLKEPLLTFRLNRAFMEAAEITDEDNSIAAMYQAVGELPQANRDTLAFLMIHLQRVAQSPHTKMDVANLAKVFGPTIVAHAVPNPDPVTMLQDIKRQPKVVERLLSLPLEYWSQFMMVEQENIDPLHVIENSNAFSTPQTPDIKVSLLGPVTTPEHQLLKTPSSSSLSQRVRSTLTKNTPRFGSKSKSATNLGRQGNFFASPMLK
# DNA dC->dU-editing enzyme APOBEC-3A, sequence (P31941 whole entry): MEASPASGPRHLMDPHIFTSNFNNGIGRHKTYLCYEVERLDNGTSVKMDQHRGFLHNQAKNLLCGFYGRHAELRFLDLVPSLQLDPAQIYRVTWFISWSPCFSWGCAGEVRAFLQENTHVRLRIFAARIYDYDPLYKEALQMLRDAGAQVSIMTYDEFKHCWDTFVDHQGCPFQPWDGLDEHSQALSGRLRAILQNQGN
# Polyadenylate-binding protein 1, sequence (P11940 whole entry): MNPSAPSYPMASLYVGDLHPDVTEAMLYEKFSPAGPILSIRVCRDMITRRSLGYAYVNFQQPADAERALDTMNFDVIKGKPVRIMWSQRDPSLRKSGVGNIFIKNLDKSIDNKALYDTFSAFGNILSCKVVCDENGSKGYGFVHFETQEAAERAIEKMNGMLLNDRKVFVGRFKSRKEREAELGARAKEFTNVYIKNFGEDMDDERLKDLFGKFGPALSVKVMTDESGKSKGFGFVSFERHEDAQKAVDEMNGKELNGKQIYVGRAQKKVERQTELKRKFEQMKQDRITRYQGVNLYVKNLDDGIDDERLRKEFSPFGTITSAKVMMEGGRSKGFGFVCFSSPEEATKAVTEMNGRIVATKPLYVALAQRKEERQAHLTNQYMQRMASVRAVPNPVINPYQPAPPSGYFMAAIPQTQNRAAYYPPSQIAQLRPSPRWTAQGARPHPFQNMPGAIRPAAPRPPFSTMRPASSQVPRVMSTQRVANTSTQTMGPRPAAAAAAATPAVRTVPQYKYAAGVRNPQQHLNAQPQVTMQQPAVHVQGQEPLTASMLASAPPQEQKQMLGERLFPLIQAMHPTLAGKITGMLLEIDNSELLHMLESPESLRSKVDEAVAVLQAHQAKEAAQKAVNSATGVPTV
# DNA dC->dU-editing enzyme APOBEC-3G, sequence (Q9HC16 whole entry): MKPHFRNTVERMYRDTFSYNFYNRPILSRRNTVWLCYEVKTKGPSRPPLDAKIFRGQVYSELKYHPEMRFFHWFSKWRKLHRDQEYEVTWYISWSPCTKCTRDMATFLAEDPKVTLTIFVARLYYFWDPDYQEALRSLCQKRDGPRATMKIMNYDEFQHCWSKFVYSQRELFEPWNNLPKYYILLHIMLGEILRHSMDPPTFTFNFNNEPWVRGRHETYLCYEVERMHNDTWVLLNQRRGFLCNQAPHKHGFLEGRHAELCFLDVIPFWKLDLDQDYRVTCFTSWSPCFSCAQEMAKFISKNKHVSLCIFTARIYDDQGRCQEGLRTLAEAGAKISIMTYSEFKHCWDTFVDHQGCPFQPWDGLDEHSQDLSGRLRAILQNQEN
# Glyceraldehyde-3-phosphate dehydrogenase, sequence (P04406 whole entry): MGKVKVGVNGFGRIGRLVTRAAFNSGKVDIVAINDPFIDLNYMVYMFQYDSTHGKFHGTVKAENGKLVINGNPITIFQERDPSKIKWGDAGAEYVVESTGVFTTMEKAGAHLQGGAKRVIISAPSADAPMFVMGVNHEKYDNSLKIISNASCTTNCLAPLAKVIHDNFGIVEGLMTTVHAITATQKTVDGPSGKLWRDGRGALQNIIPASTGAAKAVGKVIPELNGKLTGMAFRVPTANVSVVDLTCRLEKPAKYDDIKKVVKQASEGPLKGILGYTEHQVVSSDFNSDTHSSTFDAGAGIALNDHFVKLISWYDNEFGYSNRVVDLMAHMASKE
# Melanin-concentrating hormone receptor 1, sequence (Q99705 whole entry): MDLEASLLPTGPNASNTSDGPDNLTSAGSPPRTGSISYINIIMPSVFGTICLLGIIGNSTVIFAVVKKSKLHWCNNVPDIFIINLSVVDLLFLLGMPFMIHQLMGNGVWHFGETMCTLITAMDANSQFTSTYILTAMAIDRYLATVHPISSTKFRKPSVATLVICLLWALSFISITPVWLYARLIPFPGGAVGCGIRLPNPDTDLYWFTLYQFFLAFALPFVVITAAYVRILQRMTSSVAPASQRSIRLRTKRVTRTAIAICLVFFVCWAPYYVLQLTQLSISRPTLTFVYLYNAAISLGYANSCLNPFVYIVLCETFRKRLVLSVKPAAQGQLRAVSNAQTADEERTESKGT
# T6 sequence (Q9UBE0 whole entry): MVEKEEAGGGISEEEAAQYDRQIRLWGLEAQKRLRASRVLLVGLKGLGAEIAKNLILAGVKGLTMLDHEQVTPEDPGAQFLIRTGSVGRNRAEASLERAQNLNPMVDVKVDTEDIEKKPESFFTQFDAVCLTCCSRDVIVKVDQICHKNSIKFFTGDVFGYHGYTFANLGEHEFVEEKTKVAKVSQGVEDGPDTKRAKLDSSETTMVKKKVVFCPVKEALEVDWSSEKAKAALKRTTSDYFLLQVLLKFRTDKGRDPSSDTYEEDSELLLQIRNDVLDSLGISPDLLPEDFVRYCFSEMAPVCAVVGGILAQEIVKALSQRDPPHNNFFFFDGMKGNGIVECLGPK
# T6 sequence (Q9UBT2 whole entry): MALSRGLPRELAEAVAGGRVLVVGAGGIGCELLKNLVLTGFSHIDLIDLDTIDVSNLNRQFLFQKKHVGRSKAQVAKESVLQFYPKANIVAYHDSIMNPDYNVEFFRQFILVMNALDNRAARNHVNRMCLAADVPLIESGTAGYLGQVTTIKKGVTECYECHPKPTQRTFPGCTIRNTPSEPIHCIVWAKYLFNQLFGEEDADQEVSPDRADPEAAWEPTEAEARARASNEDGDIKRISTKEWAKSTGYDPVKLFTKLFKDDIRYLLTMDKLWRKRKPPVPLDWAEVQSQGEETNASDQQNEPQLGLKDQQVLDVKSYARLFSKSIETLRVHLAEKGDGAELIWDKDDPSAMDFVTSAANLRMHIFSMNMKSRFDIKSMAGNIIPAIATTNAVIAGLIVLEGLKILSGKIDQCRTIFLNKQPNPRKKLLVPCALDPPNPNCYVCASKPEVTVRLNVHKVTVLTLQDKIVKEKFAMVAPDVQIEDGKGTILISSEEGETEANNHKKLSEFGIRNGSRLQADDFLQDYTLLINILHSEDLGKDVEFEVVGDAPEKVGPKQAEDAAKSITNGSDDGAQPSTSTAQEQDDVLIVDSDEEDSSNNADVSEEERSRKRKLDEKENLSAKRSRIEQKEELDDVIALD
# Eukaryotic translation initiation factor 4E, sequence (P63073 whole entry): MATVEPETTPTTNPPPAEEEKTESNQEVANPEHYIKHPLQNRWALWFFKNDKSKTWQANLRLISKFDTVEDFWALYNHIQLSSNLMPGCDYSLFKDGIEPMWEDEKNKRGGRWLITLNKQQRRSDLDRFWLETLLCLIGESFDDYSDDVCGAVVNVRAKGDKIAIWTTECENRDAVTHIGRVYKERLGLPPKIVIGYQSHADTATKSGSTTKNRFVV
compound,measurement,setting,value
O=C(CCS(=O)(=O)c1ccc(Br)cc1)N1CCN(c2ccc(F)cc2)CC1,IC50,[1],24.2 µM (active)
same,IC50,[2],> 100 µM (inactive)
Cc1cc(O)c2c(c1)C1C=CCC1C(C(=O)O)N2 (stereo not given),IC50,[3],2.41 µM (active)
same,IC50,[4],> 100 µM (not active)
same,IC50,[5],> 100 µM (inactive)
same,IC50,[6],> 100 µM (inactive)
CN(CC(=O)NC(=O)NCc1ccco1)CC(=O)Nc1ccccc1Cl,IC50,[1],20.5 µM (active)
same,IC50,[2],60.8 µM (active)
O=C(O)C1Nc2c(cccc2S(=O)(=O)c2ccccc2)C2C=CCC12 (stereo not given),IC50,[3],11 µM (active)
same,IC50,[4],56.4 µM (active)
same,IC50,[5],52.2 µM (active)
same,IC50,[6],58.7 µM (active)
COCc1cc(C)c(C#N)c(S)n1,IC50,[7],> 100 µM (inactive)
same,IC50,[8],14.1 µM (active)
Cc1ccccc1SCC(=O)N1CCN(c2ccc(C(F)(F)F)cn2)CC1,IC50,[1],> 100 µM (inactive)
same,IC50,[2],> 100 µM (inactive)
Cc1ccc(C(=O)OCC(=O)NC2CCCCC2)o1,IC50,[1],51 µM (active)
same,IC50,[2],63 µM (active)
O=C(Nc1cc(Cl)ccc1C(=O)O)c1ccc(-c2ccccc2)cc1,IC50,Hexokinase,22.3 µM (active)
CC(C)c1ccc(-n2ncc(Cl)c(Oc3ccc(OC(F)(F)F)cc3)c2=O)cc1,IC50,[9],12 µM (inactive)
O=C(Cn1sc2ccccc2c1=O)Nc1ccc(I)cc1,IC50,Hexokinase,14.8 µM (active)
COc1ccc(Oc2c(-c3ccco3)cnn(-c3ccc(C)cc3)c2=O)cc1,IC50,[9],13.5 µM (inactive)
Cc1cc(/C=N/Nc2ccc([N+](=O)[O-])cn2)c(C)n1-c1ccc(C(=O)O)cc1,IC50,Leucine aminopeptidase,12.7 µM (active)
same,EC50,[10],> 300 µM (not active)
same,IC50,SUMO-activating enzyme [11],6.16 µM (active)
same,EC50,[12],111 µM (active)
same,IC50,SUMO-activating enzyme [13],29 µM (active)
same,IC50,[14],50 µM (inactive)
same,AC50,Caspase-6,5.03 µM (active)
CC(/C=N/n1c(S)nnc1-c1cccnc1)=C\c1ccco1,IC50,[7],> 100 µM (inactive)
same,IC50,[8],1.93 µM (active)
Sc1nnc(-c2ccncc2)n1/N=C/c1ccccc1,IC50,[7],> 100 µM (inactive)
same,IC50,[8],2.52 µM (active)
same,IC50,[15],51.9 µM (active)
O=c1c(O)c(-c2ccc(O)c(O)c2)oc2cc(O)cc(O)c12 [QUERCETIN],IC50,Hexokinase,22.4 µM (active)
